Source: patent publication US20250257034A1, “INDOLE DERIVATIVES AS SEROTONERGIC AGENTS USEFUL FOR THE TREATMENT OF DISORDERS RELATED THERETO” (priority 2023, published 2025)
Like-named read-outs stand apart in the source and are kept apart here.

What was measured:
[1] = target: T1, human 5-HT1A receptor (Homo sapiens, UniProt P08908); experiment: Human 5-HT1A radioligand binding assay ([3H]-8-Hydroxy-DPAT); set-up: expressed in transfected cells; host or cells: HTR1A&Gα15-CHO
T1 sequence (P08908 1-422): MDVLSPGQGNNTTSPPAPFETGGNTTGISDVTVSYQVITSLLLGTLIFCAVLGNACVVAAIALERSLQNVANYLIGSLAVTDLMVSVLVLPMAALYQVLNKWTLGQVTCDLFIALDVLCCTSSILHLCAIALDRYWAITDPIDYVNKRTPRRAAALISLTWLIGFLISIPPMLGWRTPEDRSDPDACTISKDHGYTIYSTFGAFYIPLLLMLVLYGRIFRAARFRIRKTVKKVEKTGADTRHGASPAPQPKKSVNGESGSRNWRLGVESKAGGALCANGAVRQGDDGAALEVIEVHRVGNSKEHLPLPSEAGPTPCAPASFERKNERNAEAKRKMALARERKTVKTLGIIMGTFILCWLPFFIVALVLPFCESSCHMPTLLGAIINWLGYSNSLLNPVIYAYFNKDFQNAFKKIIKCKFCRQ
Procedure: The objective of this study was to evaluate the binding properties of test compounds on 5-hydroxytryptamine receptor 1A (5-HT1A).
1. The assay buffer was prepared following Table 21 below.
2. 8 doses of reference and test compounds were prepared starting from 10 mM stock solution as required by 5-fold serial dilutions with 100% (v/v) DMSO.
3. UniFilter-96 GF/B plate was pretreated: • i. 50 μl/well of 0.5% (v/v) PEI was added to UniFilter-96 G F/B plates. The plates were sealed and incubated at 4° C. for 3 hrs. • ii. After incubation, the plates were washed 3 times with ice-cold wash buffer (50 mM Tris, pH7.4).
4. Assay plate was prepared: • i. Cell membrane was diluted with assay buffer and 100 μl/well was added to 96 round well plates to reach a concentration of 20 μg/well. • ii. 8 concentrations of reference or test compounds were prepared and 50 μl/well was added to 96 round deep well plates. • iii. [3H]-8-Hydroxy-DPAT was diluted with assay buffer to 2 nM (4×final concentration) and 50 μl/well was added to 96 round well plates.
5. The plate was centrifuged at 1000 rpm for 30 secs and then agitated at 600 rpm, R.T. for 5 min.
6. The plates were sealed, and the plate was incubated at 27° C. for 90 min.
7. The incubation was stopped by vacuum filtration onto GF/B filter plates followed by 4 times washing with ice-cold wash buffer (50 mM Tris, pH7.4).
9. The filter plates were sealed and 40 μl/well of scintillation cocktail was added.
10. The plate was read by using a Microbeta^2 microplate counter.
1. For reference and test compounds, the results were expressed as % Inhibition, using the normalization equation: N=100-100x(U-C2)/(C1-C2), where U is the unknown value, C1 is the average of high controls, and C2 is the average of low controls.
2. The IC50 was determined by fitting percentage of inhibition as a […] of compound concentrations with Hill equation using XLfit.
The objective of this study was to evaluate the binding properties of test compounds on 5-hydroxytryptamine receptor 1A (5-HTA).
1. The assay buffer was prepared following Table 50 below.
3. UniFilter-96 G FIB plate was pretreated: • i. 50 μl/well of 0.5% (v/v) PEI was added to UniFilter-96 G FIB plates. The plates were sealed and incubated at 4° C. for 3 hrs. • ii. After incubation, the plates were washed 3 times with ice-cold wash buffer (50 mM Tris, pH7.4).
6. The plates were sealed and the plate was incubated at 27° C. for 90 min.

[2] = Mouse liver microsomes stability; type: in vitro ADME; details: for microsomal CLint at 2 μM / half-life at 2 μM / CLint scaled at 2 μM: male; for microsomal CLint at 2 μM: mouse, read-out: CLint (μL/min/mg protein); for microsomal CLint at 2 μM / half-life at 2 μM: 2 μM compound; for CLint scaled at 2 μM: read-out: Scaled-up CLint
Procedure: The objective of this study was to estimate in vitro metabolic stability of exemplary compounds of Formula (I) or a pharmaceutically acceptable salt, solvate, and/or prodrug thereof in pooled human, male rat, and male mouse liver microsomes. The concentrations of compounds in reaction systems were evaluated by LC-MS/MS for estimating the stability in pooled human, male rat, and male mouse liver microsomes. The in vitro intrinsic clearances of test compounds were determined as well.
A master solution in the “Incubation Plate” containing phosphate buffer, ultra-pure H2O, MgCl2 solution and liver microsomes was made according to Table 33. The mixture was pre-warmed at 37° C. water bath for 5 minutes.
40 μL of 10 mM nicotinamide adenine dinucleotide phosphate (NADPH) solution was added to each well. The final concentration of NADPH was 1 mM. The negative control samples were prepared by replacing NADPH with 40 μL of ultra-pure H2O. Samples were prepared in duplicate. Negative controls were prepared in singlet.
The reaction was started with the addition of 4 μL of 200 μM exemplary test compounds of the disclosure or control compounds to each master solution to get the final concentration of 2 μM. This study was performed in duplicate.
Aliquots of 50 μL were taken from the reaction solution at 0, 15, 30, 45, and 60 minutes. The reaction solutions were stopped by the addition of 4 volumes of cold methanol with IS (100 nM alprazolam, 200 nM imipramine, 200 nM labet alol and 2 μM ketoprofen). Samples were centrifuged at 3,220 g for 40 minutes. Aliquot of 90 μL of the supernatant was mixed with 90 μL of ultra-pure H2O and then was used for LC-MS/MS analysis.
LC/MS analysis was performed for all samples from this study using a Shimadzu liquid chromatograph separation system equipped with degasser DGU-20A5R; solvent delivery unit LC-30AD; system controller SIL-30AC; column oven CTO-30A; CTC Analytics HTC PAL System. Mass spectrometric analysis was performed using a Triple Quad™ 5500 instrument.
All calculations were carried out using Microsoft Excel. Peak area ratios of test compound to internal standard (listed in the below table) were determined from extracted ion chromatograms.
All calculations were carried out using Microsoft Excel. Peak areas were determined from extracted ion chromatograms. The slope value, k, was determined by linear regression of the natural logarithm of the remaining percentage of the parent drug vs. incubation time curve.
The in vitro half-life (in vitro t1/2) was determined from the slope value:
Conversion of the in vitro t1/2(min) into the in vitro intrinsic clearance (in vitro CLint, in μL/min/mg proteins) was done using the following equation (mean of duplicate determinations): […]
A master solution in the “Incubation Plate” containing phosphate buffer, ultra-pure H2O, MgCl2 solution and liver microsomes was made according to Table 63. The mixture was pre-warmed at 37° C. water bath for 5 minutes.
40 μL of 10 mM NADPH solution was added to each well. The final concentration of NADPH was 1 mM. The negative control samples were prepared by replacing NADPH with 40 μL of ultra-pure H2O. Samples were prepared in duplicate. Negative controls were prepared in singlet.
Conversion of the in vitro t1/2(min) into the in vitro intrinsic clearance (in vitro C Lt, in μL/min/mg proteins) was done using the following equation (mean of duplicate determinations): […]

[3] = pooled liver microsomes, mouse liver microsomes, 0.5 mg/mL
[4] = pooled liver microsomes, mouse liver microsomes
[5] = mouse liver microsomes, With Cofactors, 0 min
[6] = mouse liver microsomes, With Cofactors, 30 min
[7] = mouse liver microsomes, With Cofactors, 60 min
[8] = mouse liver microsomes, Without Cofactors, 0 min
[9] = mouse liver microsomes, Without Cofactors, 30 min
[10] = mouse liver microsomes, Without Cofactors, 60 min
[11] = liver microsomes, Mouse liver microsomes, 0.5 mg/mL microsomes, 1 mM NADPH
[12] = Mouse liver microsomes, 0.5 mg/mL microsomes, 1 mM NADPH, 37° C

Row | SMILES | IC50 [1] [nM] | microsomal CLint at 2 μM [2, 3] [µL/min/mg] | half-life at 2 μM [2, 3] [min] | CLint scaled at 2 μM [2, 4] [mL/min/kg] | Predicted hepatic CL ([2]; mouse liver microsomes) [mL/min/kg] | Remaining Percentage (%) [2, 5] [%] | Remaining Percentage (%) [2, 6] [%] | Remaining Percentage (%) [2, 7] [%] | Remaining Percentage (%) [2, 8] [%] | Remaining Percentage (%) [2, 9] [%] | Remaining Percentage (%) [2, 10] [%] | Predicted hepatic CL ([2]; Mouse liver microsomes) [mL/min/kg] | microsomal CLint at 2 μM [2, 11] [µL/min/mg] | half-life at 2 μM [2, 12] [min] | CLint scaled at 2 μM ([2]; Mouse liver microsomes) [mL/min/kg] | IC50 ([1]; [3H]-8-Hydroxy-DPAT displacement (Table 51), read-out: h5-HT1A, IC50) [nM]
1 | COc1ccc2[nH]cc(CCN3CC[C@@H](OC)C3)c2c1 [(R) I-66, (R)-5-methoxy-3-(2-(3-methoxypyrrolidin-1-yl)ethyl)-1H-indole] | 22 | 14.1 | 98.5 | 61.5 | 36.55 | 100.00 | 72.95 | 65.58 | 100.00 | 104.20 | 100.00 | – | – | – | – | –
2 | COc1ccc2[nH]cc(CCN3CC[C@@H](OC(F)F)C3)c2c1 [(R) I-67, (R)-3-(2-(3-(Difluoromethoxy)pyrrolidin-1-yl)ethyl)-5-methoxy-1H-indole] | 22 | 57.4 | 24.1 | 251 | 66.25 | 100.00 | 43.11 | 17.88 | 100.00 | 103.14 | 109.43 | – | – | – | – | –
3 | COc1ccc2[nH]cc(CCN3CC[C@H](OC(F)F)C3)c2c1 [(S) I-67, (S)-3-(2-(3-(Difluoromethoxy)pyrrolidin-1-yl)ethyl)-5-methoxy-1H-indole] | 5 | 69.3 | 20 | 303 | 69.41 | 100.00 | 34.21 | 12.49 | 100.00 | 103.46 | 100.35 | – | – | – | – | –
4 | [2H]C([2H])([2H])N(CCc1c[nH]c2ccc(SC)cc12)C([2H])([2H])[2H] [Compound I-1, N,N-Bis(methyl-d3)-2-(5-(methylthio)-1H-indol-3-yl)ethan-1-amine] | 3.9 | – | – | – | – | – | – | – | – | – | – | 81.96 | 210 | 6.61 | 918 | –
5 | CCN(CC)CCc1c[nH]c2ccc(SC)cc12 [Compound I-12, N,N-Diethyl-2-(5-(methylthio)-1H-indol-3-yl)ethan-1-amine] | 2 | – | – | – | – | – | – | – | – | – | – | 82.50 | 226 | 6.13 | 990 | –
6 | CCN(C)CCc1c[nH]c2ccc(SC)cc12 [Compound I-13, N-Ethyl-N-methyl-2-(5-(methylthio)-1H-indol-3-yl)ethan-1-amine] | 2 | – | – | – | – | – | – | – | – | – | – | >84.35 | > 307 | < 4.51 | > 1340 | –
7 | CSc1ccc2[nH]cc(CCN(C(C)C)C(C)C)c2c1 [Compound I-17, N-Isopropyl-N-(2-(5-(methylthio)-1H-indol-3-yl)ethyl)propan-2-amine] | 46 | – | – | – | – | – | – | – | – | – | – | >84.35 | > 307 | < 4.51 | > 1340 | –
8 | CSc1ccc2[nH]cc(CCN(C)C(C)C)c2c1 [Compound I-19, N-Methyl-N-(2-(5-(methylthio)-1H-indol-3-yl)ethyl)propan-2-amine] | 17 | – | – | – | – | – | – | – | – | – | – | 78.36 | 138 | 10 | 606 | –
9 | COc1ccc2[nH]cc(CCN(C)CCOC(F)F)c2c1 [Compound I-71, 2-(Difluoromethoxy)-N-(2-(5-methoxy-1H-indol-3-yl)ethyl)-N-methylethan-1-amine] | – | 178 | 7.8 | 777 | 80.66 | 100.00 | 6.96 | 0.66 | 100.00 | 105.81 | 109.68 | – | – | – | – | 51
10 | CN(CCOC(F)F)CCc1c[nH]c2ccccc12 [Compound I-130, N-(2-(1H-Indol-3-yl)ethyl)-2-(difluoromethoxy)-N-methylethan-1-amine] | – | 173 | 8.03 | 755 | 80.41 | 100.00 | 7.52 | 0.87 | 100.00 | 95.65 | 104.89 | – | – | – | – | –
